SMILES strings stand for the structures.

For test [1], the target named is T1, mature Tau aggregates (Homo sapiens, UniProt P10636).
T1 construct: The full-length human Tau (hTau40) was expressed in a transformed E. coli BL21 (DE3) strain; made in house; host or cells: E. coli BL21 (DE3)
The experiment in a line: Dissolution of preformed (mature) Tau aggregates, ThS fluorescence. Format: biochemical. Conditions: 10, 30 and 100 µM added to ThS-labelled aggregates after 8 h, 37 °C. As to the method: Moreover, we performed a qualitative study of the ability of QCT and compounds 1, 5, and 9 to dissolve preformed Tau aggregates (Figure 3).
Eight-hour time courses were performed with ThS to monitor heparin-induced Tau aggregation by spectrofluorometry at 520 nm (37 °C), then 10, 30, and 100 µM of compounds (curves b–d) were added to the ThS-labelled Tau aggregates. A control was performed without compound (curve a).

Test [2] relates to SK-N-SH neuroblastoma cells. The experiment in a line: MTT cell viability assay, SK-N-SH. It counts as cell-based. Conditions: Homo sapiens, 72 h, mean ± SEM, read-out: IC50 (metabolic activity). As to the method: (§1) Cells harvested from sub-confluent monolayers were seeded at 15,000 cells per mL in a 96-well microtiter plate (Cambridge Technology, Labège, France) and cultured for 24 h under standard conditions. Standard medium was then replaced by fresh medium containing no drugs or compounds at different concentrations. The surviving cells were quantified after 72 h by the MTT assay, according to the manufacturer’s instructions. Briefly, 20 µL of 3-(4,5-diMethylThiazol-2-yl)-2,5diphenyl Tetrazolium bromide (MTT) solution at 5 mg.mL^−1 was added to cells for 3 h at 37 °C. The supernatant was discarded and replaced by 100 µL of dimethyl sulfoxide to dissolve formazan crystals. The absorbance was then read at 600 nm by spectrophotometry. For all concentrations of a given compound, cell viability was expressed as the percentage of the ratio between the mean absorbance of treated cells and the mean absorbance of untreated cells. Three independent experiments were performed, and the data were expressed as percentage of survival (using the untreated cells as 100%) and subjected to statistical analysis (n = 3). The IC50 was calculated using the Chou and Talalay method.

The target of test [3] is T2, full-length human Tau (hTau40) (Homo sapiens, UniProt P10636).
T2 construct: The full-length human Tau (hTau40) was expressed in a transformed E. coli BL21 (DE3) strain; made in house; host or cells: E. coli BL21 (DE3)
The test is described as follows: Tau oligomerization inhibition assay (heparin-induced, thioflavin S fluorescence). It counts as biochemical. Conditions: 2 µM Tau, heparin-induced, ThS; buffer A pH 6.9; 25 °C per table footnote (37 °C in method); mean ± SD; read-out: Inhibition of Aggregation IC50. The method, boiled down:
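Heparin induced oligomerization, monitored at 37 °C by thioflavin-S fluorescence (excitation 440 nm, emission 520 nm). Plateau fluorescence was obtained from an exponential growth fit (Y = Y0 + A × exp(x/t)) and used to compute percent inhibition. IC50 was derived from percent inhibition plotted against log10 compound concentration.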

Test [4] concerns U87 shTau cells. The experiment in a line: MTT cell viability assay, U87 shTau (Tau-depleted). As to conditions: Homo sapiens, 72 h, mean ± SEM, read-out: IC50 (metabolic activity). It counts as cell-based. As to the method: All cell lines were purchased from ATCC, Gaithersburg, MD, USA. Cells from human glioblastoma (clones U87 wt, HTB-14; U118, HTB-15; U251, HTB-12; U138, HTB-16), neuroblastoma (clone SK-N-SH, HTB-11), and colorectal adenocarcinoma (clone Caco-2, HTB-37) were routinely grown at 37 °C in a humidified atmosphere containing 5% CO2. Cells were maintained by regular passages in complete media supplemented with 10% FBS, 2mM of L-glutamine, 100 U/mL of penicillin, and 50 U/mL of streptomycin (Invitrogen, Paris, France). For U87 wt, U251, U138, and SK-N-SH cells, the medium consisted of EMEM (Lonza, Levallois Perret, France). U118 and Caco-2 lines were maintained in DMEM. The U87 wt-derived lines, U87 shCTRL, and U87 shTau2 cells were continuously maintained in complete EMEM medium supplemented with 0.4 µg/mL of puromycin. The shRNA sequences and the protocol of clone selection and Tau downregulation were previously described in [20]. For Tau expression rescue, the U87 shCTRL and U87 shTau cells were seeded two days prior to experiments at 4.10^5 cells per 60 mm dish in 6 mL of complete medium. Cells were transfected using LipofectAmine 2000 according to Invitrogen instructions and 8 µg EGFP-free plasmid constructs (for U87 shCTRL) and EGFP-hTau40 plasmid constructs (for U87 shTau) were used in total. One day prior to experiments, all cells were plated in a 96-well microtiter plate to prepare for viability assays. Cells were free from mycoplasma as determined by mycoalert tests (Lonza).
as §1

T2 sequence (P10636 1-441 isoform P10636-8): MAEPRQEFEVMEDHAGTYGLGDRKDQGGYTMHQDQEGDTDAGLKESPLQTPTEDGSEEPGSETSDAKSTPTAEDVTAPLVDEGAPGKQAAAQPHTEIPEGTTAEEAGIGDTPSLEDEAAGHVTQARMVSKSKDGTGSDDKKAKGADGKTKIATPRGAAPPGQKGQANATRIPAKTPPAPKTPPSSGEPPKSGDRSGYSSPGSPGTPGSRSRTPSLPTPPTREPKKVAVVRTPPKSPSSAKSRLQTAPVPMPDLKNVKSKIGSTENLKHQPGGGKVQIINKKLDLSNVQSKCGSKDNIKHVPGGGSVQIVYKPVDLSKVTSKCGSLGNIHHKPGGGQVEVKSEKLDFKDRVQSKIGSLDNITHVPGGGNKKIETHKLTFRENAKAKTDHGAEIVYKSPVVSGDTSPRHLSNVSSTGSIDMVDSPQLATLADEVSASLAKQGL
T1 sequence (P10636 1-441 isoform P10636-8): as above

In general, IC50 refers to the concentration that gives 50% inhibition. Regarding `Nc1nc2ccc3oc(-c4cccc(Oc5ccccc5)c4)cc(=O)c3c2s1` [Compound 2, 2-amino-7-(3-phenoxyphenyl)-9H-chromeno [6,5-d]thiazol-9-one], the “Ability to dissolve mature (preformed) Tau aggregates” value in test [1] is reported as “able to dissolve mature Tau aggregates”. In addition, the figures for the IC50 in test [2], in test [3] and in test [4] were 1200 ± 300 nM, 31.7 ± 7.3 µM and 4.7 ± 0.3 µM, respectively.
In the case of `Nc1nc2ccc3oc(C(=O)O)cc(=O)c3c2s1` [Compound 5], the “Ability to dissolve mature (preformed) Tau aggregates” value in test [1] is “no significant change of ThS fluorescence intensity”. Further, the IC50 in test [2] is above 100000 nM; in test [3], above 100 µM; in test [4] it was above 100 µM.

For the origin of these results see paper PMC10606064, “2-Aminothiazole-Flavonoid Hybrid Derivatives Binding to Tau Protein and Responsible for Antitumor Activity in Glioblastoma” (International Journal of Molecular Sciences, 2023).
